# Measurements as given in publication PMC4183567, “Cysteine Transport through Excitatory Amino Acid Transporter 3 (EAAT3)” (PLoS ONE, 2014).
# Where two headings read alike, the source gives them in different places.
# How the values were obtained:
# EAAT3 [1] = biological target: T1, EAAT3 (Homo sapiens, UniProt P43005); test: Substrate-gated anion (NO3) currents in Xenopus oocytes expressing EAAT3; format: cell-based; conditions: 1 mM substrate; for anion current amplitude at +60 mV: NO3-based solution, Figure 2C, n = 4
# T1 sequence (P43005 1-524): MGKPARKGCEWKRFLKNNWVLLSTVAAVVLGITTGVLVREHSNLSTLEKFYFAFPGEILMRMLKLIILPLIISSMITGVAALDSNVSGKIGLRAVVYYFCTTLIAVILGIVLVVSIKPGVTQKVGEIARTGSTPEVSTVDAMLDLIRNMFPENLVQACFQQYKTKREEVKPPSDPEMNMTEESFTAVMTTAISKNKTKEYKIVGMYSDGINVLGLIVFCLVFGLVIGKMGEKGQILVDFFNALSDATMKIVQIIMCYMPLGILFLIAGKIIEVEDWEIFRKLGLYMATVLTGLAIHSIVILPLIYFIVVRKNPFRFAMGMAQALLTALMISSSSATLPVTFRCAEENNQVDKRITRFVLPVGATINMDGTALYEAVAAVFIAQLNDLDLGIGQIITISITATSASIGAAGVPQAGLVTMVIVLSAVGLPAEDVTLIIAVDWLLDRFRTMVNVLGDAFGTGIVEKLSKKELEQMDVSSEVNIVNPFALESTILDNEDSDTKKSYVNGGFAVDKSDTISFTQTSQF
# Procedure: (§1) mRNA from linearized pOTV-EAAT1, pOTV-EAAT2 and pOTV-EAAT3 was generated as previously described and resuspended in RNAase-free water and used for oocytes injections. Xenopus oocytes where injected with 50 nl of mRNA and incubated at 18°C in 96 mM NaCl, 2 mM KCl, 1.8 mM CaCl2, 1.0 mM MgCl2, 5 mM HEPES, pH 7.4 (ND96) supplemented with 2.5 mM Sodium Pyruvate and Gentamicyn for 2 to 3 days prior to using in electrophysiological recordings and radio-labeled transport experiments.
# (§2) Oocytes were held at −60 mV, and currents elicited by 200 ms voltage steps between −120 mV and +60 mV were filtered at 2 kHz (−3dB) and digitalized with a sampling rate of 10 kHz using a Digidata AD/DA converter (Molecular Devices, Sunnyvale, CA, USA). Borosilicate pipets where filled with 3 M KCl and typical resistances where 0.2 to 1 MΩ. Transport currents were determined at −60 mV in a gluconate-based ND96 solution. In order to dialyze internal chloride, oocytes were incubated 12 to 24 hours in the gluconate solution. Anion currents were determined at positive potentials (+60 mV) after exchanging the external solution to NO3-based ND96 (replacement of 96 mM NaCl with 96 mM NaNO3) solution in the absence or in the presence of 1 mM external substrates. In experiments using cysteine as a substrate, all solutions contained 2 mM dithiothreitol (DTT). Data were analyzed with a combination of pClamp 9.2 (Axon Instrument) and Sigma Plot (Jandel Scientific, San Rafael, CA, USA). Whole cell current amplitudes are shown without any subtraction protocol. Current-voltage relationships were constructed by plotting the isochronal current 6 ms after the voltage step versus the membrane potential. All data are given as the mean ± standard deviation of the mean (SDM). For evaluation the statistical relevance, the Student’s t-Test was used with an α of 0.05.
# EAAT3 and ASCT1 [2] = biological target: T2, EAAT3 and ASCT1 (Homo sapiens, UniProt P43005); test: Release of preloaded [35S]-L-cysteine from Xenopus oocytes co-expressing EAAT3 and ASCT1; format: cell-based; conditions: 100 µM extracellular substrate, 10 min
# T2 construct: expressed in transfected cells; host or cells: Xenopus oocytes
# T2 sequence (P43005 1-524): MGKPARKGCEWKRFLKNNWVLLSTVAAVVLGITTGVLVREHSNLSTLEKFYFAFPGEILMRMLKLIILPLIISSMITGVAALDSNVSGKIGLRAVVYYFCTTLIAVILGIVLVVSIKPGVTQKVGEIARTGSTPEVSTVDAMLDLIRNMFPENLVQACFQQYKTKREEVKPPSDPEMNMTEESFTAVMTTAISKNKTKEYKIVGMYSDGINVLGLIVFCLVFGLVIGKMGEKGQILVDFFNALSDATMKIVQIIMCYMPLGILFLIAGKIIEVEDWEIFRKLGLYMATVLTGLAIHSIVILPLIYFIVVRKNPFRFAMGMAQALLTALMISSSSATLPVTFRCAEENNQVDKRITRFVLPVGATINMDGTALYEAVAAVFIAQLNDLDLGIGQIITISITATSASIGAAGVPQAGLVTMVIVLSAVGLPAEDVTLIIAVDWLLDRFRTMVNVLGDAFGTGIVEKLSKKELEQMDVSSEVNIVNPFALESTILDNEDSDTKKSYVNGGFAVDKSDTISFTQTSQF
# Procedure: mRNA from linearized pOTV-EAAT1, pOTV-EAAT2 and pOTV-EAAT3 was generated as previously described and resuspended in RNAase-free water and used for oocytes injections.
# (§3) Oocytes were washed 3 times in ND96 buffer followed by incubation for 10 min with non-radiolabeled substrates as indicated. The supernatant was removed and collected for scintillation counting, while the oocytes were lysed in 1% sodium dodecylsulfate (SDS). The oocytes lysate and supernatant were counted separately by liquid scintillation counting to determine both retained and released radioactivity respectively. Percent of released radioactivity was determined as a function of the released/(retained + released).
# EAAT3 and ASCT1 [3] = biological target: T2, EAAT3 and ASCT1; test: Release of preloaded [3H]-L-glutamate from Xenopus oocytes co-expressing EAAT3 and ASCT1; format: cell-based; conditions: 100 µM extracellular substrate
# Procedure: as §1, §3
# EAAT3 and ASCT1 [4] = test: Substrate-gated NO3 currents in Xenopus oocytes co-expressing EAAT3 and ASCT1; format: cell-based, human; conditions: 1 mM substrate, oocytes co-expressing EAAT3 and ASCT1, n = 4
# Procedure: as §1
# as §2, with “In experiments using cysteine as a substrate, all solutions contained 2 mM dithiothreitol (DTT).” left out, “Whole cell current amplitudes are shown without any subtraction protocol. Current-voltage relationships were constructed by plotting the isochronal current 6 ms after the voltage step versus the membrane potential. All data are given as the mean ± standard deviation of the mean (SDM). For evaluation the statistical relevance, the Student’s t-Test was used with an α of 0.05.” left out
# EAAT3 [5] = biological target: T1, EAAT3; test: Glutamate inhibition of [35S]-L-cysteine uptake in Xenopus oocytes expressing EAAT3; format: cell-based; parameters: expressed in transfected cells; host or cells: HEK293
# Procedure: as §1
# Cysteine transport was measured for 10 min in Xenopus oocytes with serial dilution of a mixture of 10 mM cysteine and 20 nM [^35S]-L-cysteine in ND96. Transport was terminated by three washes of ND96, after which accumulated radiolabel was quantitated by liquid scintillation counting. […] Transport was terminated by three washes in ND96 followed by liquid scintillation counting.
# EAAT2 [6] = biological target: T3, EAAT2 (Homo sapiens, UniProt P43004); test: mEGFPpH fluorescence imaging of intracellular pH in HEK293 cells co-expressing EAAT2; format: cell-based; parameters: expressed in transfected cells; host or cells: HEK293; conditions: for mEGFPpH fluorescence change: 1 mM perfusion
# Text: (§6) Cells expressing mEGFPpH were imaged with a Zeiss Axiovert 135T inverted microscope with a 40X NeoFluar oil immersion objective (NA1.3). A Lambda DG4 (Sutter Instrument Co.) equipped with a xenon arc lamp was used for high-speed excitation wavelength switching. Images were collected using either a Quantix (Roper Scientific, Tucson, AZ) or an Orca ER (Hammamatsu Co.) cooled CCD. For pH imaging experiments, the fluorescence filters (Omega Optical) were: excitation 405±20 and 485±7.5; dichroic 400-480-585DLRP; emission 510±11.5. Software control and data acquisition were accomplished using Axon Imaging Workbench (INDEC Biosystems) or OpenLab acquisition software (Improvision, Perkin Elmer). Cells were incubated at room temperature with continuous perfusion using standard buffer containing (in mM): 146 NaCl, 5 KCl, 5 HEPES, 2.5 CaCl2 and 1.2 MgCl2 at pH 7.35 with additions (substrates etc.) as indicated in figure legends. Acquisition exposure times were identical for both 405 nm and 485 nm excitation wavelengths adjusted so that the 510 emission was not saturated for either excitation wavelength. Prior to perfusion with buffers containing substrates, cells were perfused in standard buffer to achieve a stable base line. Fluorescence was reported as the ratio of fluorescence at 510 nm by excitation with 485 and 405 nm wavelengths (F485/F405).
# EAAT3 [7] = biological target: T1, EAAT3; test: mEGFPpH fluorescence imaging of intracellular pH in HEK293 cells co-expressing EAAT3; conditions: EAAT3 HEK293 cells
# Text: as §6
# EAAT3 [8] = biological target: T1, EAAT3; test: Two-electrode voltage clamp transport currents in Xenopus oocytes expressing EAAT3; format: cell-based
# Procedure: as §1, §2
# EAAT1 = biological target: T4, EAAT1 (Homo sapiens, UniProt P43003); test: Two-electrode voltage clamp transport currents in Xenopus oocytes expressing EAAT1; format: cell-based; conditions: 1 mM substrate vs 1 mM glutamate, -60 mV
# T4 construct: expressed in transfected cells; host or cells: Xenopus oocytes injected with mRNA
# Procedure: as §1
# as §2, with “In experiments using cysteine as a substrate, all solutions contained 2 mM dithiothreitol (DTT).” left out, “Whole cell current amplitudes are shown without any subtraction protocol. Current-voltage relationships were constructed by plotting the isochronal current 6 ms after the voltage step versus the membrane potential. All data are given as the mean ± standard deviation of the mean (SDM). For evaluation the statistical relevance, the Student’s t-Test was used with an α of 0.05.” left out
# EAAT2 [9] = biological target: T3, EAAT2; test: Two-electrode voltage clamp transport currents in Xenopus oocytes expressing EAAT2; format: cell-based; conditions: 1 mM substrate vs 1 mM glutamate, -60 mV
# Procedure: as §1
# as §2, with “In experiments using cysteine as a substrate, all solutions contained 2 mM dithiothreitol (DTT).” left out, “Whole cell current amplitudes are shown without any subtraction protocol. Current-voltage relationships were constructed by plotting the isochronal current 6 ms after the voltage step versus the membrane potential. All data are given as the mean ± standard deviation of the mean (SDM). For evaluation the statistical relevance, the Student’s t-Test was used with an α of 0.05.” left out
# [10] = Protonation state calculated with the Henderson-Hasselbalch equation; format: physicochemical; conditions: physiological pH
# [11] = amino acid side chain; cited from earlier work
# EAAT2 [12] = biological target: T3, EAAT2; test: Substrate inhibition of [3H]-L-glutamate uptake in HEK293 cells expressing EAAT2; format: cell-based; parameters: expressed in transfected cells; host or cells: HEK293
# Procedure: (§4) For radiolabeled transport experiments, 2×10^6 cells were transfected in 1 mL of Opti-Mem (Life Technologies) using 6 µL of Lipofectamine 2000 (Invitrogen) with 1 µg pCMV-EAAT2 or pCMV-EAAT3 DNA and plated at 5×10^4 cells/well in 24 well Costar (Corning) plates with 0.5 mL DMEM culture media prepared as above. Following transfection and plating, cells were cultured 2–3 days prior to [^3H]-L-Glutamate transport experiments.
# (§5) Transport was allowed to proceed for 10 min and was terminated by 3 washes with cold perfusion buffer. Cells were lysed with 1% SDS/0.1N NaOH and radioactivity determined by scintillation counting. Data analysis was performed using Graphpad Prism (Graphpad Software Inc.).
# EAAT3 [13] = biological target: T1, EAAT3; test: Substrate inhibition of [3H]-L-glutamate uptake in HEK293 cells expressing EAAT3; format: cell-based; parameters: expressed in transfected cells; host or cells: HEK293
# Procedure: as §4, §5
# T3 sequence (P43004 whole entry, the tested form may be a part): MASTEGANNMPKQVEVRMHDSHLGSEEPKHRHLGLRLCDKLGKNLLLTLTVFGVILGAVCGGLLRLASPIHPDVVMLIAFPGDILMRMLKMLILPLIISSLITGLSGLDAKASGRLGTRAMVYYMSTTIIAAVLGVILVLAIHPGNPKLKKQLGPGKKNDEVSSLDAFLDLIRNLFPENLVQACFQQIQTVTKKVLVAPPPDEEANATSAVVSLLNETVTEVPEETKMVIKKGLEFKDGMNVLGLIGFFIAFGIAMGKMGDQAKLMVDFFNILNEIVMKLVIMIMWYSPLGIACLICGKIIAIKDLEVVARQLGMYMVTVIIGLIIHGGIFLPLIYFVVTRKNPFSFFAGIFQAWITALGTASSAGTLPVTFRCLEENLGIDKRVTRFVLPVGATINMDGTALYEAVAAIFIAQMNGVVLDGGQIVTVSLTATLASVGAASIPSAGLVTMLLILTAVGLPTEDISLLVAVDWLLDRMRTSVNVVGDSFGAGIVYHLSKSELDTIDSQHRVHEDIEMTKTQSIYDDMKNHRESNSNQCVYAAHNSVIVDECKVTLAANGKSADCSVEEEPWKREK
# T4 sequence (P43003 whole entry): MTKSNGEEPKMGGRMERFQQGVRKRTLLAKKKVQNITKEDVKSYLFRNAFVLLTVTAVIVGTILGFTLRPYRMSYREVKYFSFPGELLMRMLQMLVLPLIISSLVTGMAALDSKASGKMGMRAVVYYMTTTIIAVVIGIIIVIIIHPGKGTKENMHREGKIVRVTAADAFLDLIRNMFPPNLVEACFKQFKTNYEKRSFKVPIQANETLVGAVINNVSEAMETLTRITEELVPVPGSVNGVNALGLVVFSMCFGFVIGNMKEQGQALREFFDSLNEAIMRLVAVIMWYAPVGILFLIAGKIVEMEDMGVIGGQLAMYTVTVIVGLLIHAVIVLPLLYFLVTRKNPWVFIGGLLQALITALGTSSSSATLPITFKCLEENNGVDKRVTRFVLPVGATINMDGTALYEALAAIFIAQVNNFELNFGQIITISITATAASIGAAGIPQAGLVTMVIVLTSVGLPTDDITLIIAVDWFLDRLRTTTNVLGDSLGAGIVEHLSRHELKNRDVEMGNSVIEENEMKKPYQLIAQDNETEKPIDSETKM
smiles,measurement,setting,value
"N[C@@H](CCC(=O)O)C(=O)O [glutamate, L-glutamate]",anion current amplitude at +60 mV,EAAT3 [1],1.78±0.4 µA
same,average anion current amplitude at +60 mV,"EAAT3 [1]; NaNO3, oocytes expressing EAAT3 alone, Figure 7C, n = 6",2.2±0.12 µA
same,release of preloaded [35S]-L-cysteine,EAAT3 and ASCT1 [2],less than 2%
same,release of loaded [3H]-L-glutamate,EAAT3 and ASCT1 [3],5%
same,macroscopic anion current amplitude at +60 mV,EAAT3 and ASCT1 [4],1.1±0.1 µA
same,inhibition at 100 µM,"EAAT3 [5]; pH 6.9, read-out: inhibition of cysteine transport",40%
same,inhibition at 100 µM,"EAAT3 [5]; pH 6.9, read-out: inhibition of cysteine uptake",~75%
same,mEGFPpH fluorescence change,EAAT2 [6],significant quench of mEGFPpH fluorescence
same,mEGFPpH fluorescence change,EAAT3 [7]; 0.5 µM perfusion,no observable fluorescence changes from baseline
same,mEGFPpH fluorescence change,EAAT3 [7]; 1 mM perfusion,fluorescence decrease
"N[C@@H](C[SeH])C(=O)O [selenocysteine, L-selenocysteine]",inward transport current,"EAAT3 [8]; 1 µM selenocysteine perfusion, Figure 2A",20 nA
same,transport current amplitude relative to glutamate transport current,"EAAT3 [8]; 1 mM substrate vs 1 mM glutamate, EAAT3 oocytes, -60 mV",95.6±14%
same,transport current amplitude relative to glutamate transport current,EAAT1,89.5±6.7%
same,transport current amplitude relative to glutamate transport current,EAAT2 [9],72.1±17%
same,anion current amplitude at +60 mV,EAAT3 [1],1.72±0.4 µA
same,fraction in deprotonated state,[10],> 99%
same,side chain pKa,[11],5.3
same,IC50,EAAT2 [12],46 ± 12 µM
same,inhibition at 1000 µM,"EAAT2 [12]; HEK293, read-out: inhibition of glutamate transport",~90%
same,IC50,EAAT3 [13],71 ± 10 µM
same,fold lower IC50 than for cysteine,EAAT3 [13]; EAAT3 HEK293 cells,approximately 10 fold
same,inhibition at 1000 µM,"EAAT3 [13]; HEK293, read-out: inhibition of glutamate uptake",> 90%
same,mEGFPpH fluorescence change,EAAT2 [6],fluorescence decrease similar in magnitude to that observed for glutamate
same,slope of fluorescence change normalized to that of 100 µM glutamate,EAAT2 [6]; selenocysteine at 100 µM,0.85±0.02
same,mEGFPpH fluorescence change,EAAT3 [7]; 1 mM perfusion,fluorescence decrease
same,slope of fluorescence change normalized to that of 100 µM glutamate,"EAAT3 [7]; selenocysteine at 100 µM, cysteine change opposite in direction",0.86±0.03
